According to ChEMBL document CHEMBL1201862, “PubChem BioAssay data set” (2004):
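How tested: cells in 96-well plates exposed to compound for 48 hours at five concentrations. Abbreviation: GI50, concentration required for 50% inhibition of growth.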 Calls of active or inactive are those of the source. Rule as the data show it: active = GI50 up to about 1.1 µM and inactive = higher.

Key:
Experiment in all cases: DTP human tumour cell line panel, 48 h
786-0 = test system: 786-0
A498 = test system: A498
A549 = test system: A549
ACHN = test system: ACHN
BT-549 = test system: BT-549
CAKI-1 = test system: CAKI-1
CCRF-CEM = test system: CCRF-CEM
COLO 205 = test system: COLO 205
DU-145 = test system: DU-145
EKVX = test system: EKVX
HCC 2998 = test system: HCC 2998
HCT-116 = test system: HCT-116
HCT-15 = test system: HCT-15
HL-60 = test system: HL-60
HOP-62 = test system: HOP-62
HOP-92 = test system: HOP-92
HT-29 = test system: HT-29
Hs-578T = test system: Hs-578T
K562 = test system: K562
KM12 = test system: KM12
LOX IMVI = test system: LOX IMVI
M14 = test system: M14
MCF7 = test system: MCF7
MDA-MB-231 = test system: MDA-MB-231
MDA-MB-435 = test system: MDA-MB-435
MDA-N = test system: MDA-N
MOLT-4 = test system: MOLT-4
Malme-3M = test system: Malme-3M
NCI-H226 = test system: NCI-H226
NCI-H23 = test system: NCI-H23
NCI-H460 = test system: NCI-H460
NCI/ADR-RES = test system: NCI/ADR-RES
OVCAR-3 = test system: OVCAR-3
OVCAR-4 = test system: OVCAR-4
OVCAR-5 = test system: OVCAR-5
OVCAR-8 = test system: OVCAR-8
PC-3 = test system: PC-3
RPMI-8226 = test system: RPMI-8226
RXF 393 = test system: RXF 393
SF-268 = test system: SF-268
SF-295 = test system: SF-295
SF-539 = test system: SF-539
SK-MEL-28 = test system: SK-MEL-28
SK-MEL-2 = test system: SK-MEL-2
SK-MEL-5 = test system: SK-MEL-5
SK-OV-3 = test system: SK-OV-3
SN12C = test system: SN12C
SNB-19 = test system: SNB-19
SNB-75 = test system: SNB-75
SW-620 = test system: SW-620
TK-10 = test system: TK-10
U-251 = test system: U-251
UACC-257 = test system: UACC-257
UACC-62 = test system: UACC-62
UO-31 = test system: UO-31

OC1CCN2Cc3ccccc3N=C12 (stereo not given)
GI50 (786-0): > 100 µM (inactive) | GI50 (A498): > 100 µM (inactive) | GI50 (A549): > 100 µM (inactive) | GI50 (ACHN): > 100 µM (inactive) | GI50 (BT-549): > 100 µM (inactive) | GI50 (CAKI-1): > 100 µM (inactive) | GI50 (CCRF-CEM): > 100 µM (inactive) | GI50 (COLO 205): > 100 µM (inactive) | GI50 (DU-145): > 100 µM (inactive) | GI50 (EKVX): > 100 µM (inactive) | GI50 (HCC 2998): > 100 µM (inactive) | GI50 (HCT-116): > 100 µM (inactive) | GI50 (HCT-15): > 100 µM | GI50 (HL-60): > 100 µM (inactive) | GI50 (HOP-62): > 100 µM (inactive) | GI50 (HOP-92): > 100 µM (inactive) | GI50 (HT-29): > 100 µM (inactive) | GI50 (Hs-578T): > 100 µM (inactive) | GI50 (K562): > 100 µM (inactive) | GI50 (KM12): > 100 µM (inactive) | GI50 (LOX IMVI): > 100 µM (inactive) | GI50 (M14): > 100 µM (inactive) | GI50 (MCF7): > 100 µM (inactive) | GI50 (MDA-MB-231): > 100 µM (inactive) | GI50 (MDA-MB-435): > 100 µM (inactive) | GI50 (MDA-N): > 100 µM (inactive) | GI50 (MOLT-4): > 100 µM (inactive) | GI50 (Malme-3M): > 100 µM (inactive) | GI50 (NCI-H226): > 100 µM (inactive) | GI50 (NCI-H23): > 100 µM (inactive) | GI50 (NCI-H460): > 100 µM (inactive) | GI50 (NCI/ADR-RES): > 100 µM (inactive) | GI50 (OVCAR-3): > 100 µM (inactive) | GI50 (OVCAR-4): > 100 µM (inactive) | GI50 (OVCAR-5): > 100 µM (inactive) | GI50 (OVCAR-8): > 100 µM (inactive) | GI50 (PC-3): > 100 µM (inactive) | GI50 (RPMI-8226): > 100 µM (inactive) | GI50 (RXF 393): > 100 µM (inactive) | GI50 (SF-268): > 100 µM (inactive) | GI50 (SF-295): > 100 µM (inactive) | GI50 (SF-539): > 100 µM (inactive) | GI50 (SK-MEL-28): > 100 µM (inactive) | GI50 (SK-MEL-2): > 100 µM (inactive) | GI50 (SK-MEL-5): > 100 µM (inactive) | GI50 (SK-OV-3): > 100 µM (inactive) | GI50 (SN12C): > 100 µM (inactive) | GI50 (SNB-19): > 100 µM (inactive) | GI50 (SNB-75): > 100 µM (inactive) | GI50 (SW-620): > 100 µM (inactive) | GI50 (TK-10): > 100 µM (inactive) | GI50 (U-251): > 100 µM (inactive) | GI50 (UACC-257): > 100 µM (inactive) | GI50 (UACC-62): > 100 µM (inactive) | GI50 (UO-31): > 100 µM (inactive)
